The subject of the assay is SW-1 melanoma, thapsigargin-induced death, ATPlite luminescence, 24 h. Nature of the assay: protection from thapsigargin-induced SW-1 death, SAR follow-up, cell-based, SW-1 melanoma, ATP content luminescence (AID 1355). Particulars: at 25 µM, stronger effect = higher value.
Where [1] appears, read: measured here: thapsigargin 7.5 uM.
[2] abbreviates: measured here: thapsigargin 15 uM.

Activity calls are given as the source filed them.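 The calls were made as follows: active = survival at least 30 percentage points above the stressed untreated control at any dose of the stressor; inactive = the rest.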

Take `CCOc1cccc(C2Nc3ccccc3NC3=C2C(=O)CC(c2ccc(OC)cc2)C3)c1` (stereo not drawn): the survival was 33% (inactive). Under setting [1], the survival was determined as 75%. Under setting [2], this compound registered a survival of 3%.
As for `CCCOc1ccc(C2Nc3ccccc3NC3=C2C(=O)CC(c2ccc(OC)c(OC)c2)C3)cc1` (stereo not drawn), the survival is 83%. The same compound yielded a survival under setting [1] of 71%. Besides, under setting [2], the survival stood at 3%.
As to `COc1ccc(C2CC(=O)C3=C(C2)Nc2ccccc2NC3c2cccc(C(F)(F)F)c2)cc1OC` (stereo not drawn), the survival was 86%. Moreover, the survival under setting [1] stood at 75%. Under setting [2], this compound yielded a survival of 8%.
For the compound `COc1ccc(C2CC(=O)C3=C(C2)Nc2ccccc2NC3c2cccc(Br)c2)cc1OC` (stereo not drawn), the survival is 67%. Under setting [1], this compound came in with a survival of 72%. The compound also displayed a survival under setting [2] of 7%.
For `COc1ccc(C2CC(=O)C3=C(C2)Nc2ccccc2NC3c2cc(C)ccc2C)cc1` (stereo not drawn), in that order: 83%, 72% and 9%.
As for `COc1ccc(C2CC(=O)C3=C(C2)Nc2ccccc2NC3c2ccccc2C(F)(F)F)cc1OC` (stereo not drawn), the survival is 98%. Also, the survival under setting [1] came out at 89%. Under setting [2], this compound had a survival of 7%.
With `O=C1CC(c2ccccc2)CC2=C1C(c1c(F)cccc1Cl)Nc1ccccc1N2` (stereo not drawn), the survival was 73%. Under setting [1], this compound registered a survival of 72%. Under setting [2], this compound displayed a survival of 3%.
For `CC1(C)CC(=O)C2=C(C1)Nc1ccccc1NC2c1ccc(-c2ccccc2)cc1` (stereo not drawn), the survival is 66%. The compound further showed a survival under setting [1] of 69%. In addition, under setting [2], the survival was 7%.
Take `CSc1ccc(C2Nc3ccccc3NC3=C2C(=O)CC(c2ccccc2)C3)cc1` (stereo not drawn): the survival was 74%. Also, under setting [1], the survival amounted to 72%. Besides, the survival under setting [2] came to 23%.
`COc1ccc(C2CC(=O)C3=C(C2)Nc2ccccc2NC3c2cccc(Oc3ccccc3)c2)cc1OC` (stereo not drawn): the survival was 84%. For the same compound, the survival under setting [1] turned out to be 77%. Under setting [2], this compound had a survival of 18%.
Take `CCOc1cc(C2Nc3ccccc3NC3=C2C(=O)CC(c2ccc(OC)cc2)C3)cc(Cl)c1O` (stereo not drawn): the survival is 30% (inactive). This compound gave a survival under setting [1] of 71%. The same compound gave a survival under setting [2] of 2%.

(Values after PubChem BioAssay AID1355 (Sanford-Burnham Center for Chemical Genomics, 2008).)
